Series [1] in a line: Vitamin B1 level in whole blood, serum pyridoxamine and pyridoxal levels and Wernicke's encephalopathy in two test subjects on pyridoxamine medication. The format is in vivo, human.
Series [2] in a line: Capture of dopamine by glyoxal, free dopamine by HPLC. The class given is biochemical. The conditions noted are these: 2.5 mM dopamine + 25 mM glyoxal + 25 mM test compound, pH 7.4, room temperature, 30 minutes; glyoxal alone about 30%. The method, then: (§1) The reaction solutions are incubated at room temperature, and the amount of free serotonin or dopamine, which were not captured by glyoxal, in the reaction solutions was measured by HPLC.
(§2) The negative control contained only 5-HT or DP with a buffer (GO and the test compounds were not added) (test samples 1 and 5), and the positive control contained 5-HT or DP and only GO (none of the test compounds was added) (test samples 2 and 6). […] After incubation, the reaction solutions were diluted 10-fold (pH 7.4) with a 0.25 M phosphate buffer, and analyzed by HPLC. The HPLC analysis was performed with instruments produced by Shimadzu Corporation (system controller: SCL-10A vp, auto injector: SIL-10A, degasser: DGU-12A, liquid chromatograph: LC-10AD vp, UV-Vis detector: SPD-10A vp, and column oven: CTO-10AC vp) under the conditions shown in Table 6. The data analysis was performed with Chromatopac C-R7A Plus.

A further series has as its system ASD patients. The conditions noted are these: cited from earlier work.
A short description of series [3]: Capture of serotonin by glyoxal, free serotonin by HPLC. The conditions noted are these: 2.5 mM serotonin + 25 mM glyoxal + 25 mM test compound, pH 7.4, room temperature, 2 hours; glyoxal alone about 40%. The format is biochemical. The method, then: as §1, §2

`CC(=C(CCO)SSCC1CCCO1)N(C=O)Cc1cnc(C)nc1N` (stereo in doubt) [Fursultiamine, fursultiamine, reference compound]: the “symptom of Wernicke's encephalopathy” value in series [1] (subject ID No. 3, 14 weeks after start (8 weeks after start of thiamine compound 75 mg/day oral)) is “disappeared”. Besides, the “vitamin B1 level in whole blood” value amounted to 135 ng/mL in series [1] (subject ID No. 3, fursultiamine 75 mg/day oral for 6 weeks with continued pyridoxamine, 12 weeks after start, 28 ng/mL before thiamine) and 150 ng/mL in series [1] (subject ID No. 6, fursultiamine 300 mg/day intravenous, then 100 to 50 mg/day oral, with pyridoxamine, 11 weeks after start, 25 ng/mL before thiamine). The “symptoms of Wernicke's encephalopathy” value in series [1] (subject ID No. 6, 11 weeks after start, on thiamine compound) was “disappeared”.

Regarding `Cc1ncc(CO)c(C=O)c1O` [pyridoxal], the “amount of free dopamine relative to the negative control taken as 100%” value in series [2] is “no free dopamine became detectable”. The “repetitive patterns of behavior of ASD patients” value with ASD patients (30 mg/kg/day, other research denies this efficacy (NPL 6)) was “effective”. Further, the “amount of free serotonin relative to the negative control taken as 100%” value in series [3] was “rather decreased”.

Regarding `Cc1ncc(CO)c(CO)c1O` [pyridoxine], the “side effects (irritability, hyperactivity, sound sensitivity, enuresis)” value in the series with ASD patients (children with ASD, NPL 8, NPL 9) was “may cause side effects to develop”. In addition, the verbal intelligence entry with ASD patients (children with pervasive developmental disorder who have sensitivity to sound, NPL 7) was “improvement in verbal intelligence”. Moreover, the “intelligence quotient (IQ) scores” value in the series on ASD patients (children with pervasive developmental disorder, sensitive to sound, expressive language disorder, dyspraxia, high amount, NPL 2) is recorded as “increases in intelligence quotient (IQ) scores”.

Values taken from patent US11253519B2, “Composition used to improve symptoms of autism spectrum disorder, and method using same for improving symptoms of autism spectrum disorder” (RENASCIENCE CO., LTD., priority 2016, dated 2022).
